Experimental data published in patent US20260217767A1, “NOVEL A4B7 THIOETHER PEPTIDE DIMER ANTAGONISTS” (Protagonist Therapeutics, Inc., priority 2014, published 2026).
Where two headings read alike, the source gives them in different places. *1 amine or outer side, *2 acyl side, *3 side chain or, on linkers, in order; H or OH if unused. Where a SMILES comes first, the peptide text is derived from it. Bridges are numbered along the chain shown (N, C = ends). [ ]: non-standard residue; d: D form. Phe(4-tBu) = CC(C)(C)c1ccc(C[C@H](N)C(=O)O)cc1; NMeR = CN[C@@H](CCCNC(=N)N)C(=O)O; β3hE = N[C@@H](CCC(=O)O)CC(=O)O; X1 = O=C(c1ccccc1C[*:2])[*:1]; Pen = CC(C)(S)[C@H](N)C(=O)O

Target: T1, RPMI 8866 cells (Homo sapiens, UniProt P13612+P26010)
T1 sequence (P13612 34-1032): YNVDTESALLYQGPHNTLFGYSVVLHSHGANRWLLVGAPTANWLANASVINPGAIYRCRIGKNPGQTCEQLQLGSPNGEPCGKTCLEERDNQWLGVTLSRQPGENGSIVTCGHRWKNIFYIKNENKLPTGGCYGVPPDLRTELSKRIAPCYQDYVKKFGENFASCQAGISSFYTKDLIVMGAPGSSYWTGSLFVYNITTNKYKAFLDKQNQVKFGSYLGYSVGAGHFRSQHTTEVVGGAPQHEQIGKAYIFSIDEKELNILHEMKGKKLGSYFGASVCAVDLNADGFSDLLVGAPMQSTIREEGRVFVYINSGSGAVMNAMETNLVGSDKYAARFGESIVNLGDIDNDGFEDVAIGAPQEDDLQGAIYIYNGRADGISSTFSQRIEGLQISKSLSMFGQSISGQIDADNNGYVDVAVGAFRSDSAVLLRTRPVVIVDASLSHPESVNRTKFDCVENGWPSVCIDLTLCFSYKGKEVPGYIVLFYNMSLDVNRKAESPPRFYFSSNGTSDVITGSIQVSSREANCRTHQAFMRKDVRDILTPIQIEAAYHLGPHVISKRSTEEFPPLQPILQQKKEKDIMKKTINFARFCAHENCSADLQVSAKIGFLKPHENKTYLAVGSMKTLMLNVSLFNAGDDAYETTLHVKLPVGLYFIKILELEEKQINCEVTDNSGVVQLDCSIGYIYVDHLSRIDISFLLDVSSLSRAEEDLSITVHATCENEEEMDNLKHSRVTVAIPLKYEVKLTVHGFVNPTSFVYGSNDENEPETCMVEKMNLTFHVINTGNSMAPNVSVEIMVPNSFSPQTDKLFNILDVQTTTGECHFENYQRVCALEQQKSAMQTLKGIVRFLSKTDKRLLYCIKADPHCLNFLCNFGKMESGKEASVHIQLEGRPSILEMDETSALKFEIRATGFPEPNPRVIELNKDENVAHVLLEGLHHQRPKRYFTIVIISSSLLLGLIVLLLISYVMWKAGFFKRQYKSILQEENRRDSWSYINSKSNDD
T1 sequence (P26010 20-798): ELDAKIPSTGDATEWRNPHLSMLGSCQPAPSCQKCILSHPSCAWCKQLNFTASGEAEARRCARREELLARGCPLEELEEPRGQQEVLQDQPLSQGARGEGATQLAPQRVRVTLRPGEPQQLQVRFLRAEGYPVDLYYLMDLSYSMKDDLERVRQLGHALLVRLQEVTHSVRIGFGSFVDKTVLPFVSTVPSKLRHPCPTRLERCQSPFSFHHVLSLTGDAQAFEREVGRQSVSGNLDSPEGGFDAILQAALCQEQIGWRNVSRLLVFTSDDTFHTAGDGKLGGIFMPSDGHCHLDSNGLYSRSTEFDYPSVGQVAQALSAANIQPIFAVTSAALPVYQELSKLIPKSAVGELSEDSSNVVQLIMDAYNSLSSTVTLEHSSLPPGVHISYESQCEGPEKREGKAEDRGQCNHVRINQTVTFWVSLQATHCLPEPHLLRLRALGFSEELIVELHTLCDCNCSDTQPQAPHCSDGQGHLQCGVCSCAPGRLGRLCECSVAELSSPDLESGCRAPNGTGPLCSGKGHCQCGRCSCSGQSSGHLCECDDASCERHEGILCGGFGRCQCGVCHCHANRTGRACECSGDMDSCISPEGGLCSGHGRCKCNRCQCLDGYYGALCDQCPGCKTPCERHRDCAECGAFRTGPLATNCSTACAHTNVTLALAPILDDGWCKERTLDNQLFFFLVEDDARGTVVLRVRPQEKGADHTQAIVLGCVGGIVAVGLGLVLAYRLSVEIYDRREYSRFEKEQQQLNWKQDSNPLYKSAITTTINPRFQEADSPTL
Experiment: α4β7-MAdCAM Cell Adhesion Assay
Format: cell-based
Settings: read-out: Cell-Adhesion A4B7
Procedure: α4β7-MAdCAM Cell Adhesion Assay
RPMI 8866 cells (Sigma #95041316) were cultured in RPMI 1640 HEPES medium (Invitrogen #22400-089) supplemented with 10% serum (Fetal Bovine Serum, Invitrogen #16140-071), 1 mM sodium pyruvate (Invitrogen #11360-070), 2 mM L-glutamine (Invitrogen #25030-081) and Penicillin-Streptomycin (Invitrogen #15140-122) at 100 units of penicillin and 100 μg of streptomycin per ml. The cells were washed two times in DMEM medium (ATCC #30-2002) supplemented with 0.1% BSA, 10 mM HEPES pH 7 and 1 mM MnCl2. The cells were re-suspended in supplemented DMEM medium at a density of 4×10^6 cells/ml.
A Nunc MaxiSorp plate was coated with rh MAdCAM-1/Fc Chimera (R&D #6065-MC) at 200 ng per well in 50 ul per well in 1×PBS and incubated at 4° C. overnight. The solution was then removed by shaking, blocked with 250 ul per well PBS containing 1% BSA, and incubated at 37° C. for 1 hr. The solution was removed by shaking. Peptides were diluted by serial dilution in a final volume of 50 ul per well (2× concentration). To each well, 50 ul of cells (200,000 cells) were added and the plate was incubated at 37° C., 5% CO2 for 30-45 min to allow cell adhesion. The wells were washed manually three times (100 ul per wash) with supplemented DMEM. After the final wash, 100 μl/well of supplemented DMEM and 10 ul/well of MTT reagent (ATTC cat #30-1010K) were added. The plate was incubated at 37° C., 5% CO2 for 2-3 hrs until a purple precipitate is visible. 100 ul of Detergent Reagent (ATTC cat #30-1010K) was added to each well. The plate was covered from the light, wrapped in Parafilm to prevent evaporation, and left overnight at room temperature in the dark. The plate was shaken for 5 min and the absorbance at 570 nm is measured. To calculate the dose response, the absorbance value of control wells not containing cells was subtracted from each test well.

[1] = thioether monomer peptides, Table 6
[2] = thioether peptide dimers, Table 7

Structure (SMILES)	IC50 [1] [nM]	IC50 [2] [nM]
CC(C)C[C@@H]1NC(=O)[C@H]([C@@H](C)O)NC(=O)[C@H](CC(=O)O)NC(=O)[C@H](CO)NC(=O)[C@H](CCCNC(=N)N)N(C)C(=O)c2ccc(cc2)CSC(C)(C)[C@@H](C(=O)N[C@@H](Cc2c[nH]c3ccccc23)C(=O)N[C@H](CCC(=O)O)C(=O)N[C@H](CCCCN)C(N)=O)NC1=O [compound 112] (HELM PEPTIDE1{[meR].S.D.T.L.[Pen].W.[dE].[dK].[am]}|CHEM1{[O=C(c1ccc(C[*:2])cc1)[*:1]]}$PEPTIDE1,CHEM1,1:R1-1:R1|PEPTIDE1,CHEM1,6:R3-1:R2$$$V2.0)	> 1000	–
CC(C)C[C@@H]1NC(=O)[C@H]([C@@H](C)O)NC(=O)[C@H](CC(=O)O)NC(=O)[C@H](CO)NC(=O)[C@H](CCCNC(=N)N)N(C)C(=O)c2cccc(c2)CSC(C)(C)[C@@H](C(=O)N[C@@H](Cc2c[nH]c3ccccc23)C(=O)N[C@H](CCC(=O)O)C(=O)N[C@H](CCCCN)C(N)=O)NC1=O [compound 111] (HELM PEPTIDE1{[meR].S.D.T.L.[Pen].W.[dE].[dK].[am]}|CHEM1{[O=C(c1cccc(C[*:2])c1)[*:1]]}$PEPTIDE1,CHEM1,1:R1-1:R1|PEPTIDE1,CHEM1,6:R3-1:R2$$$V2.0)	> 1000	–
CC(C)C[C@@H]1NC(=O)[C@H]([C@@H](C)O)NC(=O)[C@H](CCC(=O)O)NC(=O)[C@H](CO)NC(=O)[C@H](CCCNC(=N)N)N(C)C(=O)c2ccccc2CSC(C)(C)[C@@H](C(=O)N[C@@H](Cc2ccccc2)C(=O)N[C@H](CCC(=O)O)C(=O)N[C@H](CCCCN)C(N)=O)NC1=O [compound 189] (HELM PEPTIDE1{[meR].S.E.T.L.[Pen].F.[dE].[dK].[am]}|CHEM1{[O=C(c1ccccc1C[*:2])[*:1]]}$PEPTIDE1,CHEM1,1:R1-1:R1|PEPTIDE1,CHEM1,6:R3-1:R2$$$V2.0)	–	> 1000
CC(C)C[C@@H]1NC(=O)[C@H]([C@@H](C)O)NC(=O)[C@H](CC(=O)O)NC(=O)[C@H](CO)NC(=O)[C@H](CCCNC(=N)N)N(C)C(=O)c2ccccc2CSC[C@@H](C(=O)N2Cc3ccccc3C[C@H]2C(=O)N[C@H](CCCCN)C(=O)O)NC1=O [compound 118] (HELM PEPTIDE1{[meR].S.D.T.L.C.[Tic].[dK]}|CHEM1{[O=C(c1ccccc1C[*:2])[*:1]]}$PEPTIDE1,CHEM1,1:R1-1:R1|PEPTIDE1,CHEM1,6:R3-1:R2$$$V2.0)	100 to 1000	–
CC(C)C[C@@H]1NC(=O)[C@H]([C@@H](C)O)NC(=O)[C@H](CC(=O)O)NC(=O)[C@H](CO)NC(=O)[C@H](CCCNC(=N)N)N(C)C(=O)c2ccccc2CSC(C)(C)[C@@H](C(=O)N[C@@H](Cc2c[nH]c3ccccc23)C(=O)N[C@H](CCC(=O)O)C(=O)N[C@@H](Cc2ccccc2)C(=O)N[C@H](CCCCN)C(N)=O)NC1=O [compound 192] (HELM PEPTIDE1{[meR].S.D.T.L.[Pen].W.[dE].F.[dK].[am]}|CHEM1{[O=C(c1ccccc1C[*:2])[*:1]]}$PEPTIDE1,CHEM1,1:R1-1:R1|PEPTIDE1,CHEM1,6:R3-1:R2$$$V2.0)	–	< 25
CC(C)C[C@@H]1NC(=O)[C@H]([C@@H](C)O)NC(=O)[C@H](CC(=O)O)NC(=O)[C@H](CO)NC(=O)[C@H](CCCNC(=N)N)N(C)C(=O)c2ccccc2CSC(C)(C)[C@@H](C(=O)N[C@@H](Cc2c[nH]c3ccccc23)C(=O)N[C@H](CCC(=O)O)C(=O)N[C@@H](Cc2c[nH]cn2)C(=O)N[C@H](CCCCN)C(N)=O)NC1=O [compound 193] (HELM PEPTIDE1{[meR].S.D.T.L.[Pen].W.[dE].H.[dK].[am]}|CHEM1{[O=C(c1ccccc1C[*:2])[*:1]]}$PEPTIDE1,CHEM1,1:R1-1:R1|PEPTIDE1,CHEM1,6:R3-1:R2$$$V2.0)	–	< 25
CC(C)C[C@@H]1NC(=O)[C@H]([C@@H](C)O)NC(=O)[C@H](CC(=O)O)NC(=O)[C@H](CO)NC(=O)[C@H](CCCNC(=N)N)N(C)C(=O)c2ccccc2CSC(C)(C)[C@@H](C(=O)N[C@@H](Cc2c[nH]c3ccccc23)C(=O)N[C@H](CCC(=O)O)C(=O)N[C@@H](Cc2ccc(O)cc2)C(=O)N[C@H](CCCCN)C(N)=O)NC1=O [compound 195] (HELM PEPTIDE1{[meR].S.D.T.L.[Pen].W.[dE].Y.[dK].[am]}|CHEM1{[O=C(c1ccccc1C[*:2])[*:1]]}$PEPTIDE1,CHEM1,1:R1-1:R1|PEPTIDE1,CHEM1,6:R3-1:R2$$$V2.0)	–	< 25
CC(C)C[C@@H]1NC(=O)[C@H]([C@@H](C)O)NC(=O)[C@H](CC(=O)O)NC(=O)[C@H](CO)NC(=O)[C@H](CCCNC(=N)N)N(C)C(=O)c2ccccc2CSC[C@@H](C(=O)N2Cc3ccccc3C[C@H]2C(=O)N[C@@H](Cc2ccc(-c3ccccc3)cc2)C(=O)N[C@H](CCCCN)C(N)=O)NC1=O [compound 205] (HELM PEPTIDE1{[meR].S.D.T.L.C.[Tic].[O=C([C@H](Cc1ccc(-c2ccccc2)cc1)N[*:1])[*:2]].[dK].[am]}|CHEM1{[O=C(c1ccccc1C[*:2])[*:1]]}$PEPTIDE1,CHEM1,1:R1-1:R1|PEPTIDE1,CHEM1,6:R3-1:R2$$$V2.0)	–	100 to 1000
CC(C)C[C@@H]1NC(=O)[C@H]([C@@H](C)O)NC(=O)[C@H](CC(=O)O)NC(=O)[C@H](C)NC(=O)[C@H](CCCNC(=N)N)N(C)C(=O)c2ccccc2CSC(C)(C)[C@@H](C(=O)N[C@@H](Cc2ccc(C(C)(C)C)cc2)C(=O)N[C@@H](CCC(=O)O)CC(N)=O)NC1=O [compound 139] ([NMeR]ADTL[Pen][Phe(4-tBu)][β3hE]-NH2; linker N-6 via X1)	25 to 100	–
CC(C)C[C@@H]1NC(=O)[C@H]([C@@H](C)O)NC(=O)[C@H](CC(=O)O)NC(=O)[C@H](CO)NC(=O)[C@H](CCCNC(=N)N)N(C)C(=O)c2ccccc2CSC(C)(C)[C@@H](C(=O)N[C@@H](Cc2ccc3ccccc3c2)C(=O)N[C@@H](Cc2ccc(-c3ccccc3)cc2)C(=O)N[C@H](CCCCN)C(N)=O)NC1=O [compound 206]	–	> 1000
